Data reported in the NIST ThermoML archive (doi:10.1016/j.jct.2016.10.010).
“And” between values parts separate entries of the source, which are not always exact repeats. Equal values may be shown once. Numbers after ± are expanded uncertainties.

Key:
[1] = Molar enthalpy of transition or fusion; details: Crystal; DSC
[2] = for vapor or sublimation pressure: Transpiration method; for Normal melting temperature: DTA

## CCN1CCN(c2cc3c(cc2F)c(=O)c(C(=O)O)cn3C2CC2)CC1 [Enrofloxacin]
[1]
  Molar enthalpy of transition or fusion: 7.86 ± 0.287 kcal/mol
[2]; 431.15 K, Crystal
  vapor or sublimation pressure: 1.79e-06 ± 2.3e-07 kPa
[2]; 433.15 K, Crystal
  vapor or sublimation pressure: 2.13e-06 ± 2.6e-07 kPa
[2]; 435.15 K, Crystal
  vapor or sublimation pressure: 2.5e-06 ± 3e-07 kPa
[2]; 437.15 K, Crystal
  vapor or sublimation pressure: 2.92e-06 ± 3.5e-07 kPa
[2]; 439.15 K, Crystal
  vapor or sublimation pressure: 3.41e-06 ± 4e-07 kPa
[2]; 441.15 K, Crystal
  vapor or sublimation pressure: 4.04e-06 ± 4.7e-07 kPa
[2]; 443.15 K, Crystal
  vapor or sublimation pressure: 4.71e-06 ± 5.4e-07 kPa
[2]; 445.15 K, Crystal
  vapor or sublimation pressure: 5.49e-06 ± 6.3e-07 kPa
[2]; 447.15 K, Crystal
  vapor or sublimation pressure: 6.61e-06 ± 7.4e-07 kPa
[2]; 449.15 K, Crystal
  vapor or sublimation pressure: 7.56e-06 ± 8.5e-07 kPa
[2]; 451.15 K, Crystal
  vapor or sublimation pressure: 8.91e-06 ± 9.9e-07 kPa
[2]; 453.15 K, Crystal
  vapor or sublimation pressure: 1.035e-05 ± 1.1e-06 kPa
[2]; Crystal
  Normal melting temperature: 221.6 ± 0.7 °C

## O=C(O)c1ccccc1 [benzoic acid]
[2]; 307.15 K, Crystal
  vapor or sublimation pressure: 0.000285 ± 4e-05 kPa
[2]; 323.15 K, Crystal
  vapor or sublimation pressure: 0.001674 ± 0.00019 kPa
[2]; 338.15 K, Crystal
  vapor or sublimation pressure: 0.007513 ± 0.00085 kPa
[2]; 354.15 K, Crystal
  vapor or sublimation pressure: 0.0316 ± 0.0034 kPa

## O=C(O)c1cn(C2CC2)c2cc(N3CCNCC3)c(F)cc2c1=O [ciprofloxacin]
[2]; 436.15 K, Crystal
  vapor or sublimation pressure: 1.95e-06 ± 2.5e-07 kPa
[2]; 438.15 K, Crystal
  vapor or sublimation pressure: 2.43e-06 ± 3e-07 kPa
[2]; 440.15 K, Crystal
  vapor or sublimation pressure: 2.85e-06 ± 3.4e-07 kPa
[2]; 442.15 K, Crystal
  vapor or sublimation pressure: 3.54e-06 ± 4.2e-07 kPa
[2]; 444.15 K, Crystal
  vapor or sublimation pressure: 4.3e-06 ± 5e-07 kPa
[2]; 446.15 K, Crystal
  vapor or sublimation pressure: 4.97e-06 ± 5.7e-07 kPa
[2]; 448.15 K, Crystal
  vapor or sublimation pressure: 5.94e-06 ± 6.8e-07 kPa
[2]; 450.15 K, Crystal
  vapor or sublimation pressure: 7.09e-06 ± 8e-07 kPa
[2]; 452.15 K, Crystal
  vapor or sublimation pressure: 8.4e-06 ± 9.5e-07 kPa
[2]; 454.15 K, Crystal
  vapor or sublimation pressure: 1.045e-05 ± 1.2e-06 kPa
[2]; 456.15 K, Crystal
  vapor or sublimation pressure: 1.228e-05 ± 1.4e-06 kPa
[2]; 458.15 K, Crystal
  vapor or sublimation pressure: 1.461e-05 ± 1.6e-06 kPa
[2]; 460.15 K, Crystal
  vapor or sublimation pressure: 1.764e-05 ± 1.9e-06 kPa
[2]; Crystal
  Normal melting temperature: 270 ± 2.1 °C

## C[C@H]1COc2c(N3CCN(C)CC3)c(F)cc3c(=O)c(C(=O)O)cn1c23 [levofloxacin]
[1]
  Molar enthalpy of transition or fusion: 5.26 ± 1.05 kcal/mol
[2]; 437.15 K, Crystal
  vapor or sublimation pressure: 5.71e-06 ± 6.5e-07 kPa
[2]; 439.15 K, Crystal
  vapor or sublimation pressure: 6.66e-06 ± 7.6e-07 kPa
[2]; 441.15 K, Crystal
  vapor or sublimation pressure: 8.35e-06 ± 9.4e-07 kPa
[2]; 443.15 K, Crystal
  vapor or sublimation pressure: 9.72e-06 ± 1.1e-06 kPa
[2]; 445.15 K, Crystal
  vapor or sublimation pressure: 1.135e-05 ± 1.3e-06 kPa
[2]; 447.15 K, Crystal
  vapor or sublimation pressure: 1.364e-05 ± 1.5e-06 kPa
[2]; 449.15 K, Crystal
  vapor or sublimation pressure: 1.607e-05 ± 1.8e-06 kPa
[2]; 451.15 K, Crystal
  vapor or sublimation pressure: 1.952e-05 ± 2.2e-06 kPa
[2]; 453.15 K, Crystal
  vapor or sublimation pressure: 2.326e-05 ± 2.6e-06 kPa
[2]; 455.15 K, Crystal
  vapor or sublimation pressure: 2.722e-05 ± 3e-06 kPa
[2]; 457.15 K, Crystal
  vapor or sublimation pressure: 3.146e-05 ± 3.4e-06 kPa
[2]; 459.15 K, Crystal
  vapor or sublimation pressure: 3.689e-05 ± 4e-06 kPa
[2]; Crystal
  Normal melting temperature: 233.0 ± 3.1 °C
[2]; Metastable crystal
  Normal melting temperature: 227.0 ± 3.1 °C and 230.5 ± 3.1 °C

## CCn1cc(C(=O)O)c(=O)c2cc(F)c(N3CCNCC3)cc21 [norfloxacin]
[1]
  Molar enthalpy of transition or fusion: 8.63 ± 1.74 kcal/mol
[2]; 423.15 K, Crystal
  vapor or sublimation pressure: 1.3e-06 ± 1.8e-07 kPa
[2]; 425.15 K, Crystal
  vapor or sublimation pressure: 1.57e-06 ± 2.1e-07 kPa
[2]; 427.15 K, Crystal
  vapor or sublimation pressure: 1.86e-06 ± 2.4e-07 kPa
[2]; 429.15 K, Crystal
  vapor or sublimation pressure: 2.21e-06 ± 2.7e-07 kPa
[2]; 431.15 K, Crystal
  vapor or sublimation pressure: 2.66e-06 ± 3.2e-07 kPa
[2]; 432.15 K, Crystal
  vapor or sublimation pressure: 2.85e-06 ± 3.4e-07 kPa
[2]; 434.15 K, Crystal
  vapor or sublimation pressure: 3.35e-06 ± 3.9e-07 kPa
[2]; 436.15 K, Crystal
  vapor or sublimation pressure: 3.92e-06 ± 4.5e-07 kPa
[2]; 438.15 K, Crystal
  vapor or sublimation pressure: 4.53e-06 ± 5.2e-07 kPa
[2]; 440.15 K, Crystal
  vapor or sublimation pressure: 5.26e-06 ± 6e-07 kPa
[2]; 442.15 K, Crystal
  vapor or sublimation pressure: 6.02e-06 ± 6.8e-07 kPa
[2]; 444.15 K, Crystal
  vapor or sublimation pressure: 7.01e-06 ± 7.9e-07 kPa
[2]; 446.15 K, Crystal
  vapor or sublimation pressure: 8.32e-06 ± 9.3e-07 kPa
[2]; Crystal 2, DSC
  Triple point temperature: 468.7 ± 0.8 K
[2]; Crystal
  Normal melting temperature: 220.4 ± 2.2 °C
